The values that follow come from patent publication US5173502A, “Substituted trifluoropropan-1-yl-imidazole alpha 2-receptor anagonists” (Adir et Compagnie, priority 1990, dated 1992).

For one assay, the system named is α2-adrenergic receptors. Kind of assay: In vivo α2-antagonism test: reestablishment of the righting reflex lost through xylazine in rats. To be noted: xylazine-induced loss of righting reflex. Details: species or system rat. Here is the method: (§1) In vivo α2 -antagonism test
(§2) The α2 -antagonist properties of the compounds of the invention were determined according to a method described by F. Colpaert et al., (DRUG Development Research 7, 125-140, 1986) by measuring the effects produced by those compounds on the loss of the correcting reflex and exophthalmia induced in rats by xylazine, a known agonist of α2-adrenergic receptors in the central nervous system.
(§3) The reestablishment of the righting reflex measures the α2 -antagonist potential of the compounds, whilst the return of the eye to a normal position measures the α1 -antagonist potential.

The next assay has as its system α1. Kind of assay: In vivo test: return of the eye to a normal position (xylazine-induced exophthalmia) in rats, α1-antagonist potential. Details: species or system rat. Here is the method:
as §1, §2, §3

Molecules are shown by their SMILES.

As for `Cl.FC(F)(F)C(Cc1c[nH]cn1)c1ccccc1` (centres unmarked) [Example 2, 4-(2-Phenyl-3,3,3-trifluoropropan-1-yl)-imidazole hydrochloride], the “ED50 (α2)” value with α2-adrenergic receptors was 5 mg/kg. Further, the “ED50 (α1)” value with α1 was “higher than 10 mg/kg”.
